Assay results reported in US5051534A, “Novel cyclopropyl squalene derivatives and their use as inhibitors of cholesterol synthesis” (Merrell Dow Pharmaceuticals Inc., priority 1990, dated 1991).

Molecular target: T1, squalene epoxidase (Rattus norvegicus, UniProt P52020)
T1 construct: Microsomes, prepared by ultracentrifugation of homogenates of rat liver; from tissue; host or cells: rat liver microsomes, incubated with the high speed supernatant fraction
Assay: Inhibition of squalene epoxidase in rat liver microsomes (3H-squalene incubation, TLC or HPLC radioactivity)
Type: biochemical
Conditions: 37° C., 45 minutes, 60 μM 3H-squalene, 2.0 mM NADPH, 0.01 mM FAD, compounds tested at >0.0 to 100.0 μM
Protocol: The following assay is used to test compounds for their ability to inhibit 2,3-oxidosqualene lanosterol-cyclase (squalene cyclase) or squalene epoxidase. Microsomes, prepared by ultracentrifugation of homogenates of rat liver, are incubated at 37° C. for 45 minutes in the presence of 60 μM ^3 H-squalene, 2.0 mM NADPH, 0.01 mM FAD, and the high speed supernatant fraction from the microsomal preparation. Blanks, in which NADPH has been omitted, are run simultaneously with the test compounds. Compounds are tested at concentrations of >0.0 to 100.0 μM.
Following incubation the samples are saponified, standards are added to each sample, and then the reaction products are extracted into hexane. The hexane extracts are dried and then the dried extracts are redissolved in chloroform. […] Spots containing the reaction products are scraped from the TLC plates and counted for radioactivity in a scintillation counter. An IC50 is finally calculated.
Incubation reactions are stopped by the addition of chloroform:methanol, standards are added and the reaction products and standards are extracted into chloroform. […] Chromatographic peaks containing reaction products are monitored for radioactivity with a flow-through scintillation counter connected in series with the HPLC column. An IC50 (Inhibitory Concentration) is calculated based on the radioactivity in controls and samples. […]

T1 sequence (P52020 whole entry): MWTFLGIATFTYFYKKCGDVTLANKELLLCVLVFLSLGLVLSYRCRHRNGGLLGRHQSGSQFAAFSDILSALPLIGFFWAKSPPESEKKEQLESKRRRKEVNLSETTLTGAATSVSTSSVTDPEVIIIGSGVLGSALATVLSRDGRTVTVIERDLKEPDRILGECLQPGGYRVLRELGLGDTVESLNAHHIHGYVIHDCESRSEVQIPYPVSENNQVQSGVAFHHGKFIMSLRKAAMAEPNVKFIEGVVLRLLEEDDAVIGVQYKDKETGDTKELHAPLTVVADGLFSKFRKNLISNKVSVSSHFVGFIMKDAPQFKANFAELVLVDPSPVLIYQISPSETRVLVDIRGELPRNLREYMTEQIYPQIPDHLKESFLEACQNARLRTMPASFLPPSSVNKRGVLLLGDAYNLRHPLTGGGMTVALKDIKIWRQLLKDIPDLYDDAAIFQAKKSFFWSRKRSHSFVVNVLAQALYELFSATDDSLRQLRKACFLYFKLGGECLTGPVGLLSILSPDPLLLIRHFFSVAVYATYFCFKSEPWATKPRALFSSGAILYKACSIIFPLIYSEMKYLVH

IC50: 42 µM
SMILES: CC(C)=CCC/C(C)=C/CC/C(C)=C/CC/C=C(\C)CC/C=C(\C)CCCOC1CC1 [Compound 1, 4,8,13,17,21-Pentamethyl-4,8,12,16,20-docosapentaen-l-ol cyclopropyl ether]
